Data: the supplement of paper PMC13380429

What was measured:
Details in all cases: 72 h
Caco-2 [1] = test: cell viability relative to DMSO; higher = less toxic
Calu-3 [2] = test: as above
HepG2 [3] = test: as above
U2OS [4] = test: as above
Vero E6 [5] = test: as above
Caco-2 [6] = test: relative viability EC50 (midpoint between 100% and the lowest measured viability); higher = less toxic
Calu-3 [7] = test: as above
HepG2 [8] = test: as above
U2OS [9] = test: as above
Vero E6 [10] = test: as above
Caco-2 [11] = test: drug sensitivity score (DSS) for viability; higher = more toxic; extreme values may be limits of the assay
Calu-3 [12] = test: as above
HepG2 [13] = test: as above
U2OS [14] = test: as above
Vero E6 [15] = test: as above

Structure (SMILES)	cell viability (Caco-2 [1]; 1 nM) [%]	cell viability (Caco-2 [1]; 10 nM) [%]	cell viability (Caco-2 [1]; 100 nM) [%]	cell viability (Caco-2 [1]; 1000 nM) [%]	cell viability (Caco-2 [1]; 10000 nM) [%]	cell viability (Calu-3 [2]; 1 nM) [%]	cell viability (Calu-3 [2]; 10 nM) [%]	cell viability (Calu-3 [2]; 100 nM) [%]	cell viability (Calu-3 [2]; 1000 nM) [%]	cell viability (Calu-3 [2]; 10000 nM) [%]	cell viability (HepG2 [3]; 1 nM) [%]	cell viability (HepG2 [3]; 10 nM) [%]	cell viability (HepG2 [3]; 100 nM) [%]	cell viability (HepG2 [3]; 1000 nM) [%]	cell viability (HepG2 [3]; 10000 nM) [%]	cell viability (U2OS [4]; 1 nM) [%]	cell viability (U2OS [4]; 10 nM) [%]	cell viability (U2OS [4]; 100 nM) [%]	cell viability (U2OS [4]; 1000 nM) [%]	cell viability (U2OS [4]; 10000 nM) [%]	cell viability (Vero E6 [5]; 1 nM) [%]	cell viability (Vero E6 [5]; 10 nM) [%]	cell viability (Vero E6 [5]; 100 nM) [%]	cell viability (Vero E6 [5]; 1000 nM) [%]	cell viability (Vero E6 [5]; 10000 nM) [%]	relative viability EC50 (Caco-2 [6]) [µM]	relative viability EC50 (Calu-3 [7]) [µM]	relative viability EC50 (HepG2 [8]) [µM]	relative viability EC50 (U2OS [9]) [µM]	relative viability EC50 (Vero E6 [10]) [µM]	drug sensitivity score (Caco-2 [11])	drug sensitivity score (Calu-3 [12])	drug sensitivity score (HepG2 [13])	drug sensitivity score (U2OS [14])	drug sensitivity score (Vero E6 [15])
CCCCCNCC(N)=O [milacemide]	100	90.8	91.4	99.6	95.5	108	113	107	99.6	95	109	97.9	95.2	94.6	110	103	100	98.3	101	98.6	99.9	105	104	97.3	101	> 10	> 10	> 10	> 10	> 10	0	0	0	0	0
c1ccc2c(c1)OC[C@H](CNCCCOc1ccc3c(c1)OCO3)O2 [osemozotan]	90.5	108	101	96.5	114	94	103	109	108	95.9	99.1	105	112	97	106	96.9	99.2	96.9	101	94.2	106	104	103	85.3	100	> 10	> 10	> 10	> 10	> 10	0	0	0	0	0
NC(=O)CN1CC(O)CC1=O (stereo not given) [oxiracetam]	98.9	111	94.8	99.1	101	101	98	102	93.9	102	92.6	101	95.8	104	94.8	107	103	97.5	100	98.9	98.1	101	104	99.2	97.1	> 10	> 10	> 10	> 10	> 10	0	0	0	0	0
C[N+](C)(C)CC#CCN1CCCC1=O [oxotremorine-M]	102	104	93.7	107	98.6	94.9	98.3	91	102	102	92	108	92	102	99.1	102	105	97.5	102	99.5	94.5	93.5	93.5	96	95.7	> 10	> 10	> 10	> 10	> 10	0	0	0	0	0
Cn1c(=O)[nH]c2ncn(C)c2c1=O [paraxanthine]	95.4	106	97.4	102	91.8	94.9	101	92.9	89.8	98.1	102	100	106	103	93.2	97.4	101	98.2	100	99.7	95.5	95.8	99.2	93.5	98.2	> 10	> 10	> 10	> 10	> 10	0	0	0	0	0
FC(F)(F)C(F)(F)C(F)(F)N(C(F)(F)C(F)(F)C(F)(F)F)C(F)(F)C(F)(F)C(F)(F)F [perfluamine]	98	96.8	95	88.6	101	103	93.2	99.7	107	98.3	101	97.7	92.2	101	93.7	105	97	99.8	97.1	100	96.5	97.9	100	103	91.1	> 10	> 10	> 10	> 10	> 10	0	0	0	0	0
CN1C(=O)CC(c2ccccc2)C1=O (stereo not given) [phensuximide]	99.3	102	97.2	90.9	103	100	108	107	99.1	103	108	110	96.4	98.3	98.9	96.2	99.8	100	98.3	106	104	103	99.5	103	98.3	> 10	> 10	> 10	> 10	> 10	0	0	0	0	0
